Test results reported in PMC6812009, “Covalent Aurora A regulation by the metabolic integrator coenzyme A” (Redox Biology, 2019).

Assays:
Assay in all cases: Kinase profiling screen (radioactive filter-binding assay)
Format in all cases: biochemical
[1] = molecular target: T1, p38δ MAPK (Homo sapiens, UniProt O15264); details: 100 μM compound, 5 μM ATP; read-out: Kinase activity, % of activity in the absence of inhibitor
T1 sequence (O15264 1-365): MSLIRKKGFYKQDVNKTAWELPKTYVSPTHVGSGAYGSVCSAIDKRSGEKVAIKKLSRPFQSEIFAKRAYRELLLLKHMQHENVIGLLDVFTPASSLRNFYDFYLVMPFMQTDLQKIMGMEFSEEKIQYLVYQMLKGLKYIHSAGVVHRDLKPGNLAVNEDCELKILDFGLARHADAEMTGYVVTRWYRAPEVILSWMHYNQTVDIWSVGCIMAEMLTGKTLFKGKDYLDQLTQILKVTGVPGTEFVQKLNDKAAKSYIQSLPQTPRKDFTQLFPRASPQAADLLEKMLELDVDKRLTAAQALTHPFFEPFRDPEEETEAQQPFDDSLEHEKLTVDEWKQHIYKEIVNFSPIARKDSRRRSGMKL
Method in brief: (§1)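 Panel of 117 recombinant kinases; CoA, dpCoA, ADP each at 100 μM final, duplicates; model substrates, ATP at optimal level.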

[2] = molecular target: T2, PRAK (Homo sapiens, UniProt Q8IW41); details: 100 μM compound, 20 μM ATP; read-out: Kinase activity, % of activity in the absence of inhibitor
T2 sequence (Q8IW41 1-473): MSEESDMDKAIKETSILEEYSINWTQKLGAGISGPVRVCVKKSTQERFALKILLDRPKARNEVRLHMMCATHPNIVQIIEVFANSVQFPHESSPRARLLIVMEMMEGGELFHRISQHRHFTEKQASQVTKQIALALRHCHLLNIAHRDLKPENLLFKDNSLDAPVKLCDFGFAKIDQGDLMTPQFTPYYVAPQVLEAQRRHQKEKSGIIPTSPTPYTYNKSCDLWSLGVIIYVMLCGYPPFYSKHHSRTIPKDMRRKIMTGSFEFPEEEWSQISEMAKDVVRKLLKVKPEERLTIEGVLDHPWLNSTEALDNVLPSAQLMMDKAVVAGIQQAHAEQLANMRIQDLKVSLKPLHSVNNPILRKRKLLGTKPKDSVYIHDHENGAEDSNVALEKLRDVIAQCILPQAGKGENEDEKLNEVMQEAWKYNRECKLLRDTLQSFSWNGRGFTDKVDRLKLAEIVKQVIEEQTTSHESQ
Method in brief: as §1

[3] = molecular target: PAK5 (Homo sapiens, UniProt Q9P286); details: 100 μM compound, 20 μM ATP; read-out: Kinase activity, % of activity in the absence of inhibitor
PAK5, sequence (Q9P286 whole entry): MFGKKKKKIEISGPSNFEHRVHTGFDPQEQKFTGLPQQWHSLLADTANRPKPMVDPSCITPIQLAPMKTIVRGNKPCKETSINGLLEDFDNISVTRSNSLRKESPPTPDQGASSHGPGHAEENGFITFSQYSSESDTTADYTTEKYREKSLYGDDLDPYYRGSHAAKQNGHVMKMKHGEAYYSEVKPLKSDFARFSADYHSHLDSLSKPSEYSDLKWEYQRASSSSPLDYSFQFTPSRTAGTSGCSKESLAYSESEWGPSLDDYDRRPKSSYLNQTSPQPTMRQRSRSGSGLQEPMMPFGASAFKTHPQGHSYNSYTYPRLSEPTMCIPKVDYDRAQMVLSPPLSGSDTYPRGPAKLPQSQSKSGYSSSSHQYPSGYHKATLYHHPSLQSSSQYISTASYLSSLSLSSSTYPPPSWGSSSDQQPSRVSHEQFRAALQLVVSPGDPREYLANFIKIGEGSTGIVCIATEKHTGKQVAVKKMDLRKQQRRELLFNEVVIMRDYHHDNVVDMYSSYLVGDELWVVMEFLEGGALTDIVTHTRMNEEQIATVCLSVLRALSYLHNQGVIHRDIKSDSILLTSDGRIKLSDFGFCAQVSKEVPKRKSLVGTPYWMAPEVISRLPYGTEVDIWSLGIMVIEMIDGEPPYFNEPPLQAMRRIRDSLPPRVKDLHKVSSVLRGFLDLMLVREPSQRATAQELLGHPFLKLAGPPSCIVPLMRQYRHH
Method in brief: as §1

[4] = molecular target: T3, TAO1 (Homo sapiens, UniProt Q7L7X3); details: 100 μM compound, 20 μM ATP; read-out: Kinase activity, % of activity in the absence of inhibitor
T3 sequence (Q7L7X3 1-1001): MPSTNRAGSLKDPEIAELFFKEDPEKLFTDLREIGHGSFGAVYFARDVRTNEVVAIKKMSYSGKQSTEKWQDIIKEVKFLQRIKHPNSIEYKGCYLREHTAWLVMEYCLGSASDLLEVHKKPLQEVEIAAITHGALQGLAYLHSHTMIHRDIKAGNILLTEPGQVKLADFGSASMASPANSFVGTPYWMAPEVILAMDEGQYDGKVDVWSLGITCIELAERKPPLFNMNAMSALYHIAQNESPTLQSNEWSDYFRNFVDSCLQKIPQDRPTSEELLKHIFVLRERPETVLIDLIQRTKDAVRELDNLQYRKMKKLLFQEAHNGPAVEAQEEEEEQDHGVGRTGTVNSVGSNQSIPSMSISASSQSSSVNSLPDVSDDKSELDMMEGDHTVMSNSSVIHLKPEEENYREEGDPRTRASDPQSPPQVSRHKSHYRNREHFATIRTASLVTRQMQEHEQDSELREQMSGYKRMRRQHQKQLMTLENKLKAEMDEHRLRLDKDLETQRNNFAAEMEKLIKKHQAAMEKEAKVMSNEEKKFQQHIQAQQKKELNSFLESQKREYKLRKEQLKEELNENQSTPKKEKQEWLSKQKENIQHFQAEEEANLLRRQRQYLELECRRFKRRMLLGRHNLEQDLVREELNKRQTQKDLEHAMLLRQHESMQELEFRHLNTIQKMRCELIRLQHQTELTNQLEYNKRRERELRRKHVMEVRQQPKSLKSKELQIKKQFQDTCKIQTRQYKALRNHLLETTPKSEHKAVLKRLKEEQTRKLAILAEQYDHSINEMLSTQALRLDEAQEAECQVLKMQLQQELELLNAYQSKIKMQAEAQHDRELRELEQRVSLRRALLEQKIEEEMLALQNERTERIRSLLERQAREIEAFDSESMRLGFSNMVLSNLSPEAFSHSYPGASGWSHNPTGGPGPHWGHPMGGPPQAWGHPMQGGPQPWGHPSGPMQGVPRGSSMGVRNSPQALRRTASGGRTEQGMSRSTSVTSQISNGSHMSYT
Method in brief: as §1

[5] = molecular target: MNK1 (Homo sapiens, UniProt Q9BUB5); details: 100 μM compound, 50 μM ATP; read-out: Kinase activity, % of activity in the absence of inhibitor
MNK1, sequence (Q9BUB5 whole entry): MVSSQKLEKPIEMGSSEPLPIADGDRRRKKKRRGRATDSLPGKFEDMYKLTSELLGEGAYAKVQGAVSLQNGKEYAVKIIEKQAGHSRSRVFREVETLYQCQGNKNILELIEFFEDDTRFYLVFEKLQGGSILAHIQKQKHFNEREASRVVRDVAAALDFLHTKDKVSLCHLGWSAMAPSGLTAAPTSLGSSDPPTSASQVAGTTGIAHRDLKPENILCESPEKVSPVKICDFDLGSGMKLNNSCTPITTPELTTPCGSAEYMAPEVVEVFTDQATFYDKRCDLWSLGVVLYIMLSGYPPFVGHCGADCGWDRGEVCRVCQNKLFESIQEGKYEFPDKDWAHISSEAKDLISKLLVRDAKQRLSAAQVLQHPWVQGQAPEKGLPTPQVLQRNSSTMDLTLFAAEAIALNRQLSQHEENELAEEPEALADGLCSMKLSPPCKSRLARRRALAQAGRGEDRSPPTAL
Method in brief: as §1

CC(C)(COP(=O)(O)OP(=O)(O)OC[C@H]1O[C@@H](n2cnc3c(N)ncnc32)[C@H](O)[C@@H]1OP(=O)(O)O)[C@@H](O)C(=O)NCCC(=O)NCCS [CoA, Coenzyme A]
activity at 100 µM [1]: 128%
activity at 100 µM [2]: 99.7%
activity at 100 µM [3]: 70.6%
activity at 100 µM [4]: 113%
activity at 100 µM [5]: 150%

CC(C)(COP(=O)(O)OP(=O)(O)OCC1OC(n2cnc3c(N)ncnc32)C(O)C1O)C(O)C(=O)NCCC(=O)NCCS (stereo not drawn) [dpCoA, dephospho-CoA]
activity at 100 µM [1]: 71.3%
activity at 100 µM [2]: 77.7%
activity at 100 µM [3]: 86%
activity at 100 µM [4]: 98.3%
activity at 100 µM [5]: 84.2%

Nc1ncnc2c1ncn2C1OC(COP(=O)(O)OP(=O)(O)O)C(O)C1O (stereo not drawn) [ADP]
activity at 100 µM [1]: 37.3%
activity at 100 µM [2]: 15.2%
activity at 100 µM [3]: 79.5%
activity at 100 µM [4]: 34%
activity at 100 µM [5]: 60.7%
